Results taken from patent EP0005015B1, “Use of a xanthine derivate in the manufacture of a medicament” (BEECHAM - WUELFING GmbH & Co. KG, priority 1978, dated 1979).
“And” between values parts separate entries of the source, which are not always exact repeats. Equal entries are not always repeated.

Assays:
[1] = test system: ischaemic skeletal muscle; test: Skeletal muscle contractility with restricted femoral blood flow; assay type: in vivo, Cat
Experimental: (§1) Cats of either sex were anaesthetized with urethane/chloralose (120/60 mg/kg i.p. In the course of the experiments, pentobarbital was injected intravenously (V. antebrachii ceph.) via a plastic tube. The intraduodenal (i.d.) application of compound weas conducted by means of a plastic catheter, which was inserted into the duodenum.
Cats of either sex were anaesthetized as for p02 measurement. After dissection of the skin of the calf muscles, the sciatic nerve was cut about 3 cm proximal to the knee. The tendon of the calf muscles was cut and connected with an isometric force transducer (SWEMA, SG 3). In order to maintain constant differences and a resting tension of 100 p, the hind limb was fixed at the tibia by means of a clamp. Direct stimulation of the muscles consisted of square wave pulses of a 4 msec duration at a frequency of 2 Hz and at a voltage of 50 V. In order to keep the muscles wet and at a normal temperature, the muscles were continuously superfused by means of a NaCI-solution (0.9%, 38°C). Femoral blood flow was restricted by a graded occlusion of the artery leading to a reduction of contractility by ca. 30%. After having reached a constant level of the contraction force, the vehicle (NaCI and Methocel®, respectively) was injected, followed by the test substance.

[2] = test system: ischaemic skeletal muscle; test: pO2 measurement in ischaemic skeletal muscle (m. gastrocnemius, femoral artery ligated), Pt-needle electrodes; assay type: in vivo, Cat
Experimental: as §1
The reference electrode, and Ag/AgCl system was sputtered on the glass mantle of the cathode, or it was a separate electrode. The cathode was coated with a polystyrol and a collodium membrane. A constant voltage supply provided a polarizing voltage between 600 and 800 mV. The reducing current was measured by a nano-ampere amplifying meter. The- cathode was inserted in the tissue by means of a motor-driven micromanipulator.
A p02― electrode was inserted in the muscle tissue (m. gastrocnemius) of both hindlegs of an anaesthetized cat. After recording the p02 of the normal perfused muscle, the blood flow to one measuring site was restricted by ligating the femoral artery. […] After having reached a constant level of p02, the vehicle was given, followed by the test substance.
The mean value and the standard deviation were calculated, in order to check the significance of the effect.

[3] = Blood pressure changes during the contractility experiment; assay type: in vivo, Cat
[4] = Solubility in aqueous media; assay type: physicochemical
[5] = Acute oral toxicity (LD50); settings: mouse, in vivo; mice, per oral
[6] = test system: skeletal muscle; test: pO2 measurement in the control (non-ligated) hind limb muscle; assay type: in vivo, Cat; settings: individual cats
Experimental: A p02― electrode was inserted in the muscle tissue (m. gastrocnemius) of both hindlegs of an anaesthetized cat. After recording the p02 of the normal perfused muscle, the blood flow to one measuring site was restricted by ligating the femoral artery. […] The values were constant after 30 to 60 min. After having reached a constant level of p02, the vehicle was given, followed by the test substance.

For `CCCCn1c(=O)c2c(ncn2CC(C)=O)n(CCCC)c1=O` [Compound A, 1,3-di-n-butyl-7-(2-oxopropyl)xanthine], the “t (min), time interval to reach initial values, muscle contract.” value (shortened to “t (min), time interval … muscle contract.”) ([1]; 50 µg/kg i.v.) was >60 min, the “t (min), time interval … muscle contract.” value ([1]; 125 µg/kg i.v.) was >60 min and the “t (min), time interval … muscle contract.” value ([1]; 313 µg/kg i.v., n = 1) was >60 min. The Δ muscle contract. ([1]; 313 µg/kg i.v., n = 1) was “+25.0 n = 1 percentage of initial values”, the “contractility (% initial value)” value ([1]; i.d., 125 µg/kg) was 32 (125 µg) % initial value and the “contractility (% initial value)” value ([1]; i.v., 50 µg/kg) was 36 (50 µg) % initial value. For the same compound, the “effect of Compound A 125 μg/kg i.v. ΔpO2 (Torr)” value ([2]; hind limb art. lig., 125 μg/kg i.v., individual cats) was 5.6 (p≤0.01) Torr and 6.2 (p≤0.01) Torr and 7.3 (p≤0.01) Torr and 5.2 (p≤0.01) Torr and 27.1 (p≤0.01) Torr and 11.2 (p≤0.01) Torr, the “pO2 (mmHg) (increase)” value ([2]; i.d., 50 µg/kg) was 4 (50 µg) mmHg and the “pO2 (mmHg) (increase)” value ([2]; i.v., 125 µg/kg) was 10 (125 µg) mmHg. The “t (min), time interval to reach initial values, initial phase BP decrease” value ([3]; 50 µg/kg i.v.) was 2 min, the “t (min), time interval to reach initial values, second phase BP increase” value ([3]; 50 µg/kg i.v.) was 33 min and the “t (min), time interval to reach initial values, initial phase BP decrease” value ([3]; 125 µg/kg i.v.) was 3 min. For the same compound, the “t (min), time interval to reach initial values, second phase BP increase” value ([3]; 125 µg/kg i.v.) was 32 min, the “Δ second phase BP increase X̄ ± S” value ([3]; 125 µg/kg i.v.) was “+10.8 ± 8.3 percentage of initial values” and the “t (min), time interval to reach initial values, initial phase BP decrease” value ([3]; 313 µg/kg i.v., n = 1) was 2 min. The “t (min), time interval to reach initial values, second phase BP increase” value ([3]; 313 µg/kg i.v., n = 1) was 6 min, the “Δ initial phase BP decrease” value ([3]; 313 µg/kg i.v., n = 1) was −25.0 n = 1 percentage of initial values and the “Δ second phase BP increase” value ([3]; 313 µg/kg i.v., n = 1) was “+15.0 n = 1 percentage of initial values”. The “solubility in aqueous media” value [4] was “only sparingly soluble”, the LD50 [5] was > 1000 mg/kg and the “effect of Compound A 125 μg/kg i.v. ΔpO2 (Torr)” value ([6]; 125 μg/kg i.v.) was 19.3 (p≤0.01) Torr and 3.4 (p≤0.01) Torr and 13.2 (p≤0.01) Torr and 3.8 (p≤0.01) Torr and 3.5 (p≤0.01) Torr.
For `CC(=O)CCCCn1c(=O)c2c(ncn2C)n(C)c1=O` [Compound B, pentoxyphylline], the “contractility (% initial value)” value ([1]; i.d., 32 mg/kg) was 23 (32 mg) % initial value, the “contractility (% initial value)” value ([1]; i.v., 5 mg/kg) was 9 (5 mg) % initial value and the “effect of Compound B 5 mg/kg i.v. ΔpO2 (Torr)” value ([2]; hind limb art. lig., 5 mg/kg i.v., individual cats) was 1.3 (p≤0.01) Torr and 1.6 (p≤0.01) Torr and 4.9 (p≤0.01) Torr and 7.3 (p≤0.01) Torr. For the same compound, the “effect of Compound B in relation to Compound A (%)” value ([2]; hind limb art. lig., B 5 mg/kg i.v. vs A 125 μg/kg i.v., individual cats) was 22.9% and 26.6% and 0% (2×) and 17.9% and 65.6%, the “pO2 (mmHg) (increase)” value ([2]; i.d., 12.5 mg/kg) was 3 (12.5 mg) mmHg and the “pO2 (mmHg) (increase)” value ([2]; i.v., 5 mg/kg) was 2 (5 mg) mmHg. For the same compound, the “effect of Compound B in relation to Compound A (%)” value ([6]; B 5 mg/kg i.v. vs A 125 μg/kg i.v.) was 74.3% and 0% (3×) and 27%.
In the case of `CCCCn1c(=O)c2c(ncn2CCC(C)=O)n(CCCC)c1=O` [Compound C, 1,3-di-butyl-7-(3-oxobutyl)xanthine, reference compound], the “contractility (% initial value)” value ([1]; i.d., 12.5 mg/kg) is reported as 22 (12.5 mg) % initial value and the “pO2 (mmHg) (increase)” value ([2]; i.d., 32 mg/kg) is reported as 6 (32 mg) mmHg.
